The values below come from patent US9458212B2, “Nanoparticles containing a peptide, vectors containing said nanoparticles, and pharmaceutical uses of said nanoparticles and vectors” (CENTRE NATIONAL DE LA RECHERCHE SCIENTIFIQUE (C.N.R.S.), priority 2008, dated 2016).

The subject of assay [1] is T cells present in the lymph nodes draining the site of administration. Conditions: with adjuvant, BALB/c mice, Monneaux et al. 2003; cited from earlier work.
Another assay concerns mice. Kind of assay: Intranasal administration of peptide P140 in mice. The assay is classed as in vivo. The method, then: At present, the peptide P140 is administered by subcutaneous injection, which is not a comfortable mode of administration for the patient. Several other modes of administration have thus been tested. For instance, intranasal administration has been tested in mice but is not effective.

Assay [2] concerns T cells present in the lymph nodes draining the site of administration. Kind of assay: Subcutaneous immunization of BALB/c mice; ex vivo proliferation and cytokine secretion of lymph node cells stimulated with peptide P140. Conditions: s.c., in the presence of CFA. The method, then:
Eur. J. Immunol. 33, 287-296].
Female BALB/c mice aged 7 weeks old (4 groups of two mice) are immunized subcutaneously in the flanks with different formulations. […] The mice having received peptide in its free form or in the form of nanoparticles all received the same quantity of peptide, namely 100 μg per mouse.
One week after the immunization, the mice are sacrificed and samples are taken from the lymph nodes of the flank and of the foreleg. The cells issuing from these lymph nodes are cultured ex vivo in a proportion of 5.10^5 cells per well in the presence of different peptide concentrations (0, 6, 20 and 60 μM) so as to study their proliferation and also the secretion of cytokines.
The Th cells are classified into sub-populations, Th1 or Th2, depending on the cytokines that they produce and the function that they perform. Cells of type Th-1 produce in particular interleukin-2 (IL-2) and interferon-γ (IFN-γ), whereas cells of type Th-2 secrete essentially IL-4, IL-5, IL-6, IL-10 and IL-13. The immunization conditions used here, that is to say the use of CFA, encourage the development of a response of type Th1. Therefore, only the secretion of IL-2 and IFN-γ was studied.

Non-standard residues stand in square brackets, D forms with d. No end group written: not given here. pS = N[C@@H](COP(=O)(O)O)C(=O)O

For the substance “peptide P140: 21 amino acid peptide RIHMVYSKRSGKPRGYAFIEY, serine in position 10 phosphorylated (SEQ ID NO: 1) (RIHMVYSKR[pS]GKPRGYAFIEY; listed as Homo sapiens)”, the “T cell response after s.c. administration in the presence of adjuvant” value in assay [1] is “activation of the auxiliary T cells Th”. Further, the “efficacy of intranasal administration” value with mice is “not effective”. Further, the “stimulation indices (proliferation)” value in assay [2] (100 μg peptide per mouse, cells cultured with 0, 6, 20, 60 μM peptide) was “positive and dose-dependent”. Moreover, in assay [2], the “cytokine secretion (IL-2, IFN-γ)” value was “dose-dependent responses”.
